# Measurements: ChEMBL document CHEMBL3046325, “Synthesis, computational studies, and preliminary pharmacological evaluation of new arylpiperazines as potential antipsychotics” (Med Chem Res, 2012)
# Legend:
# [1] = test system: Mus musculus; assay: Antipsychotic activity in ip dosed Mus musculus Swiss albino (mouse) assessed as inhibition of […] -induced climbing behavior pretreated 10 min prior to 2.5 mg/kg, ip apomorphine administration measured at 5 min intervals for up to 20 min starting 10 min after apomorphine challenge; format: functional; conditions: route intraperitoneal
# [2] = test system: Mus musculus; assay: Induction of catalepsy in ip dosed Mus musculus albino (mouse) measured at 30 min interval until 120 min and at the end of 240 min; format: organism-based; conditions: in vivo
# [3] = test system: Mus musculus; assay: Antipsychotic activity in ip dosed Mus musculus Swiss albino (mouse) assessed as inhibiton of 5-HTP-induced head twitches pretreated 30 min before 50 mg/kg, sc 5-HTP administration measured at 10 min intervals for 30 min, starting 20 min after 5-HTP challenge; format: functional
structure (smiles),measurement,setting,value
NC(=O)c1ccccc1OCCN1CCN(c2ccccc2)CC1,ED50,[1],35.3 mg/kg
same,ED50,[2],50 mg/kg
same,ED50,[3],30 mg/kg
Cc1cccc(N2CCN(CCOc3ccccc3C(N)=O)CC2)c1,ED50,[1],40 mg/kg
same,ED50,[2],70 mg/kg
same,ED50,[3],> 20 mg/kg
Cc1ccc(N2CCN(CCOc3ccccc3C(N)=O)CC2)cc1,ED50,[1],40.5 mg/kg
same,ED50,[2],> 80 mg/kg
same,ED50,[3],27.2 mg/kg
COc1ccccc1N1CCN(CCOc2ccccc2C(N)=O)CC1,ED50,[1],40 mg/kg
same,ED50,[2],100 mg/kg
same,ED50,[3],10 mg/kg
COc1cccc(N2CCN(CCOc3ccccc3C(N)=O)CC2)c1,ED50,[1],> 40 mg/kg
same,ED50,[2],> 80 mg/kg
same,ED50,[3],25 mg/kg
NC(=O)c1ccccc1OCCN1CCN(c2ccccc2Cl)CC1,ED50,[1],> 40 mg/kg
same,ED50,[2],> 80 mg/kg
same,ED50,[3],> 20 mg/kg
NC(=O)c1ccccc1OCCCN1CCN(c2ccccc2)CC1,ED50,[1],> 40 mg/kg
same,ED50,[2],> 60 mg/kg
same,ED50,[3],> 20 mg/kg
COc1ccccc1N1CCN(CCCOc2ccccc2C(N)=O)CC1,ED50,[1],50 mg/kg
same,ED50,[2],> 60 mg/kg
same,ED50,[3],18.2 mg/kg
NC(=O)c1ccccc1OCCCCN1CCN(c2ccccc2)CC1,ED50,[1],> 40 mg/kg
same,ED50,[2],> 60 mg/kg
same,ED50,[3],> 40 mg/kg
COc1ccccc1N1CCN(CCCCOc2ccccc2C(N)=O)CC1,ED50,[1],50.8 mg/kg
same,ED50,[2],> 70 mg/kg
same,ED50,[3],> 40 mg/kg
CN1CCN(C2=Nc3cc(Cl)ccc3Nc3ccccc32)CC1 [CLOZAPINE],ED50,[1],8.7 mg/kg
same,ED50,[3],2.8 mg/kg
